In patent publication US11980188B2, “Spiro cyclohexanedione derivates as herbicides” (SYNGENTA PARTICIPATIONS AG, priority 2018, dated 2024):

How the values were obtained:
Assay in all cases: Glasshouse herbicide test, pre- and post-emergence, percentage damage
Type in all cases: in vivo
[1] = test system: Alopecurus myosuroides (ALOMY); details: 250 g/h, evaluated after 13 days, percentage damage on five point scale; for ALOMY POST: post-emergence; for ALOMY PRE: pre-emergence
Summary of the method: (§1)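 Potted plants in standard soil; pre-emergence spray after 1 d of cultivation, post-emergence after 8 d. Dose 250 g/h from an acetone/water (50:50), 0.5% Tween 20 formulation. % damage at 13 d, scored 1–5.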

Avena fatua (AVEFA) = details: 250 g/h, evaluated after 13 days, percentage damage on five point scale; for AVEFA POST: post-emergence; for AVEFA PRE: pre-emergence
Summary of the method: as §1

[2] = test system: Echinochloa crus-galli (ECHCG); details: 250 g/h, evaluated after 13 days, percentage damage on five point scale; for ECHCG POST: post-emergence; for ECHCG PRE: pre-emergence
Summary of the method: as §1

Lolium perenne (LOLPE) = details: 250 g/h, evaluated after 13 days, percentage damage on five point scale; for LOLPE POST: post-emergence; for LOLPE PRE: pre-emergence
Summary of the method: as §1

Setaria faberi (SETFA) = details: 250 g/h, evaluated after 13 days, percentage damage on five point scale; for SETFA POST: post-emergence; for SETFA PRE: pre-emergence
Summary of the method: as §1

SMILES | ALOMY POST [1] | ALOMY PRE [1] | AVEFA POST (Avena fatua (AVEFA)) | AVEFA PRE (Avena fatua (AVEFA)) | ECHCG POST [2] | ECHCG PRE [2] | LOLPE POST (Lolium perenne (LOLPE)) | LOLPE PRE (Lolium perenne (LOLPE)) | SETFA POST (Setaria faberi (SETFA)) | SETFA PRE (Setaria faberi (SETFA))
COc1cc(-c2ncc(F)cn2)cc(C)c1C1C(=O)CC2(CCN(OC)CC2)CC1=O [Compound A10] | 5 (5=80-100%) | 5 (5=80-100%) | 5 (5=80-100%) | 5 (5=80-100%) | 5 (5=80-100%) | 5 (5=80-100%) | 5 (5=80-100%) | 5 (5=80-100%) | 5 (5=80-100%) | 5 (5=80-100%)
COc1cc(-c2ccc(C#N)cn2)cc(OC)c1C1C(=O)CC2(CCN(C(C)=O)CC2)CC1=O [Compound A16] | 5 (5=80-100%) | 1 (1=0-19%) | 5 (5=80-100%) | 4 (4=60-79%) | – | 5 (5=80-100%) | 4 (4=60-79%) | 3 (3=40-59%) | 5 (5=80-100%) | 4 (4=60-79%)
Cc1cc(-c2ncc(F)cn2)cc(C)c1C1C(=O)CC2(CCN(C(=O)C(F)F)CC2)CC1=O [Compound A39] | 5 (5=80-100%) | 5 (5=80-100%) | 5 (5=80-100%) | 5 (5=80-100%) | 5 (5=80-100%) | 5 (5=80-100%) | 5 (5=80-100%) | 5 (5=80-100%) | 5 (5=80-100%) | 5 (5=80-100%)
COc1cc(-c2ccc(F)cc2)cc(C)c1C1C(=O)CC2(CCN(C(C)=O)CC2)CC1=O [Compound A21] | 5 (5=80-100%) | 5 (5=80-100%) | 5 (5=80-100%) | 5 (5=80-100%) | 5 (5=80-100%) | 5 (5=80-100%) | 5 (5=80-100%) | 5 (5=80-100%) | 5 (5=80-100%) | 5 (5=80-100%)
Cc1cc(-c2ncc(F)cn2)cc(C)c1C1C(=O)CC2(CCN(C(=O)c3ccccc3)CC2)CC1=O [Compound A33] | 5 (5=80-100%) | 5 (5=80-100%) | 5 (5=80-100%) | 5 (5=80-100%) | 5 (5=80-100%) | 5 (5=80-100%) | 5 (5=80-100%) | 5 (5=80-100%) | 5 (5=80-100%) | 5 (5=80-100%)
Cc1cc(-c2ncc(F)cn2)cc(C)c1C1C(=O)CC2(CCN(C(=O)CC#N)CC2)CC1=O [Compound A43] | 5 (5=80-100%) | 5 (5=80-100%) | 5 (5=80-100%) | 5 (5=80-100%) | 5 (5=80-100%) | 5 (5=80-100%) | 5 (5=80-100%) | 5 (5=80-100%) | 5 (5=80-100%) | 5 (5=80-100%)
Cc1cc(-c2ccc(F)cc2)cc(C)c1C1C(=O)CC2(CCN(C(=O)NC(=O)C(C)(C)C)CC2)CC1=O [Compound A58] | – | 5 (5=80-100%) | 5 (5=80-100%) | 4 (4=60-79%) | 5 (5=80-100%) | 5 (5=80-100%) | 5 (5=80-100%) | 5 (5=80-100%) | 5 (5=80-100%) | 5 (5=80-100%)
CC(=O)N1CCC2(CC1)CC(=O)C(c1c(C)cc(-c3ccc(F)cn3)cc1C)C(=O)C2 [Compound A46] | 5 (5=80-100%) | 5 (5=80-100%) | 5 (5=80-100%) | 5 (5=80-100%) | 5 (5=80-100%) | 5 (5=80-100%) | 5 (5=80-100%) | 5 (5=80-100%) | 5 (5=80-100%) | 5 (5=80-100%)
COc1cc(-c2ccc(F)cc2)cc(C)c1C1C(=O)CC2(CCN(C(=O)NC(=O)c3ccccn3)CC2)CC1=O [Compound A73] | – | 5 (5=80-100%) | 5 (5=80-100%) | 1 (1=0-19%) | 5 (5=80-100%) | 4 (4=60-79%) | 5 (5=80-100%) | 1 (1=0-19%) | 5 (5=80-100%) | 5 (5=80-100%)
CCS(=O)(=O)N1CCC2(CC1)CC(=O)C(c1c(C)cc(-c3ccc(C#N)cn3)cc1C)C(=O)C2 [Compound A22] | 5 (5=80-100%) | 5 (5=80-100%) | 5 (5=80-100%) | 5 (5=80-100%) | – | 5 (5=80-100%) | 5 (5=80-100%) | 5 (5=80-100%) | 5 (5=80-100%) | 5 (5=80-100%)
CON1CCC2(CC1)CC(=O)C(c1c(C)cc(-c3ncc(F)cn3)cc1C)C(=O)C2 [Compound A2, 9-[4-(5-fluoropyrimidin-2-yl)-2,6-dimethyl-phenyl]-3-methoxy-3-azaspiro[5.5]undecane-8,10-dione] | 5 (5=80-100%) | 5 (5=80-100%) | 5 (5=80-100%) | 5 (5=80-100%) | 5 (5=80-100%) | 5 (5=80-100%) | 5 (5=80-100%) | 5 (5=80-100%) | 5 (5=80-100%) | 5 (5=80-100%)
Cc1cc(-c2ccc(C#N)cn2)cc(C)c1C1C(=O)CC2(CCN(C(=O)NC(C)(C)C)CC2)CC1=O [Compound A26] | 5 (5=80-100%) | 5 (5=80-100%) | 2 (2=20-39%) | 4 (4=60-79%) | – | 5 (5=80-100%) | 5 (5=80-100%) | 5 (5=80-100%) | 5 (5=80-100%) | 5 (5=80-100%)
COc1cc(-c2ccc(C#N)cn2)cc(C)c1C1C(=O)CC2(CCN(C(C)=O)CC2)CC1=O [Compound A18] | 5 (5=80-100%) | 4 (4=60-79%) | 5 (5=80-100%) | 5 (5=80-100%) | 5 (5=80-100%) | 5 (5=80-100%) | 5 (5=80-100%) | 5 (5=80-100%) | 5 (5=80-100%) | 5 (5=80-100%)
Cc1cc(-c2ccc(C#N)cn2)cc(C)c1C1C(=O)CC2(CCN(C(=O)C(F)F)CC2)CC1=O [Compound A29] | 5 (5=80-100%) | – | 5 (5=80-100%) | 5 (5=80-100%) | 4 (4=60-79%) | 1 (1=0-19%) | 5 (5=80-100%) | 1 (1=0-19%) | 5 (5=80-100%) | 5 (5=80-100%)
Cc1cc(-c2ccc(F)cc2)cc(C)c1C1C(=O)CC2(CCN(C(=O)c3ccccc3)CC2)CC1=O [Compound A54] | – | 5 (5=80-100%) | 5 (5=80-100%) | 5 (5=80-100%) | 5 (5=80-100%) | 5 (5=80-100%) | 5 (5=80-100%) | 5 (5=80-100%) | 5 (5=80-100%) | 5 (5=80-100%)
